Patent US20030109051A1, “Spin trap for use in biological systems” (RANDOX LABORATORIES LTD, priority 2001, published 2003)
Entries after “also recorded” stand apart in the source; their conditions may differ.

Legend:
[1] = Reaction of nitric oxide with spin traps, ESR time course (chemical system); conditions: for trapping of nitric oxide (spin trap for nitric oxide): chemical system, spin trap in toluene, NO-saturated water
Method: ESR spectra were obtained using a prototype spectrometer (Jeol (U.K.) Ltd., Welwyn Garden City, England) equipped with a TED11 cylindrical cavity. Samples were analysed at room temperature in a WG-LC-11 quartz flat cell (Wilmad-Glass, Buena, N.J.). In general, the instrument parameters were: microwave frequency 9.2 GHz, microwave power 4 mW, centre field (CF) 336.7 mT, sweep width (SW)±5 mT, number of data points 4095, modulation frequency 100 kHz. For the spin traps reacted with nitric oxide: sweep time (ST) 150 s, time constraint (TC) 0.3 s, modulation width (MW) 0.2 mT. A JEOL ES-DM1 digital manganese oxide marker (0.03 mm of the glass tube inserted per unit on the dial setting) with a dial setting of 500 was used to ensure reproducibility between samples and to identify the position of the signals in the microwave field.
Samples of DBBNB, DMNB and TMNB were weighed into vacutainers, which were then evacuated Toluene and Tris-HCl buffer, 0.01 M, pH 7.4, were deoxygenated by bubbling with nitrogen gas for 15 min. Deoxygenated toluene was added to DBBNB, DMNB and TMNB, using a gas-tight syringe, to give a final concentration of 0.15 M in the reaction mixture.
The apparatus shown in FIG. 5 was flushed with nitrogen for 15 min. The vacutainer containing deionised water (4 ml) was then connected to the system and flushed with nitrogen for a further 15 min, to remove any oxygen present in the system, and therefore to prevent the formation of nitrogen dioxide. The NO gas was bubbled through the deionised water via the system for 45 min. The small amount of nitrogen dioxide present in the pressurised NO container was removed by bubbling through two bottles of 5M NaOH. The gas was then bubbled through a scrubbing bottle containing deionised water to remove any alkaline aerosol contamination. Any excess of NO after the deionised water step was bubbled through a scrubbing bottle containing 1M potassium permanganate/1M NaOH to prevent excess NO escaping from the fumehood. The concentration of NO in the resulting NO-saturated water was taken to be 2.0 mM. […]

[2] = Spin trapping of nitric oxide in whole blood using DMNB (ESR)
Method: This may be due to the possibility that any NO present or produced by live leucocytes in whole blood may react with thiol groups to form S-nitrosothiols and consequently be not trapped by DMNB. […] Lipopolysaccharide (LPS), which activates cell function, was also used in order to stimulate the cells to increase production of NO. As NEM may be toxic to cells, it was added i) at the same time as LPS and ii) 3.5 hours after the addition of LPS.
Peripheral blood was taken from a healthy volunteer into a vacutainer containing EDTA. After mixing, 1 ml of the blood was dispensed into each reaction vacutainer by a syringe, as quickly as possible (under 5 min).
DMNB (2) 0.5406 g was dissolved in 16 ml of deoxygenated toluene (by bubbling through nitrogen gas) to make a 0.25 M solution. 700 μl of the solution was added to each reaction mixture to make a final concentration of 0.1 M. A NO solution was made by bubbling nitric oxide gas through deoxygenated water for 45 min. The resulting NO solution (2 mM) was diluted with deoxygenated water to give 10, 35 and 50 nM solutions. An NEM solution (0. 3 M) was prepared by dissolving 0.0751 g of NEM in deoxygenated water. NEM solution (0.3 M), in amounts of 20, 40 and 80 μl, was added to the reaction mixtures to give a concentration, in 1 ml of blood, of 6, 12 and 24 mM. LPS (1 mg) was dissolved in 1 ml of PBS, 0.01 M, pH 7.4. The working stock solution is 100 μg/ml, diluted with the same buffer. The working stock solution of 10 μl was added to the reaction mixture to give a 1 μg/ml of blood. All transfer of reagents was done by gastight syringe through rubber stopper. The difference in volume due to the addition of NEM and LPS was compensated for by addition of deoxygenated water.
NO solution, blood without NEM nor LPS and PBS (0.01 M, pH 7.4) as controls were added to DMNB in toluene directly. NEM without LPS was added to blood immediately prior to addition of DMNB in toluene. When LPS was added to blood alone, the mixture of blood and LPS was incubated at room temperature for 3.5 hour before addition to DMNB in toluene. When both NEM and LPS were added to blood, NEM was either added to the blood together with LPS or added 3.5 hour later (Gust before addition of DMNB). When the DMNB in toluene was added, the reaction mixtures were incubated at room temperature on a roller for 2 hour to ensure effective extraction.
The reaction mixture was then analysed by ESR spectrometry (RE1X, Jeol). Individual results are shown in FIG. 6, and have been reassessed, for comparison purposes, in FIG. 7.

| SMILES | reaction time of DBNBS with NO ([1]; comparison value, conditions and source not given) | trapping of nitric oxide (spin trap for nitric oxide) [1] | DMNB-NO adduct ESR signal intensity ([2]; LPS alone (1 μg/ml blood, 3.5 hour) before DMNB) | DMNB-NO adduct ESR signal intensity ([2]; NEM (6, 12, 24 mM) added to blood before DMNB, increase proportional to NEM concentration) | DMNB-NO adduct ESR signal ([2]; both LPS and NEM added to blood) | DMNB-NO adduct ESR signal ([2]; peripheral blood incubated with DMNB in toluene, no NEM, no LPS) |
| --- | --- | --- | --- | --- | --- | --- |
| O=Nc1c(Br)cc(S(=O)(=O)[O-])cc1Br.[Na+] [DBNBS, 3,5-dibromo-4-nitrosobenzene sulphonate, sodium salt, reference compound] | approximately 50 hr |  |  |  |  |  |
| Cc1cccc(C)c1N=O [DMNB, 2,6-Dimethylnitrosobenzene] |  | shown to trap nitric oxide | did not Increase the signal intensity | increase in signal intensity | significant increase | did not produce a detectable DMNB-NO adduct signal; also recorded: very little signal was detected |
| Cc1cc(C)c(N=O)c(C)c1 [TMNB, 2,4,6-Trimethylnitrosobenzene] |  | shown to trap nitric oxide |  |  |  |  |
